In patent publication US20240116922A1, “IMIDAZO[1,2-A]PYRIDINE DERIVATIVES AS IRAK4 INHIBITORS AND THEIR USE IN THE TREATMENT OF DISEASE” (BIOGEN MA INC., priority 2020, published 2024):
In brackets after ≈: the same amount, converted by molar mass.

What was measured:
IRAK4 = IRAK4 (Homo sapiens (Human), UniProt Q9NWZ3); experiment: IRAK4 MSD biochemical assay (2-hour 1 mM ATP); settings: 0.1 nM IRAK4, 1 mM ATP, 2 hour at room temperature
[1] = Kinetic solubility assay (CLND), pH 6.8; assay type: physicochemical; settings: aqueous buffer, kinetic from dmso stock; potassium phosphate buffer pH 6.8, 2% DMSO, 24 hours at ambient temperature
MDR1 = MDR1 (Homo sapiens (Human), UniProt P08183); experiment: in vitro; settings: MDCK-MDR1
Chain of MDR1 (P08183 whole entry): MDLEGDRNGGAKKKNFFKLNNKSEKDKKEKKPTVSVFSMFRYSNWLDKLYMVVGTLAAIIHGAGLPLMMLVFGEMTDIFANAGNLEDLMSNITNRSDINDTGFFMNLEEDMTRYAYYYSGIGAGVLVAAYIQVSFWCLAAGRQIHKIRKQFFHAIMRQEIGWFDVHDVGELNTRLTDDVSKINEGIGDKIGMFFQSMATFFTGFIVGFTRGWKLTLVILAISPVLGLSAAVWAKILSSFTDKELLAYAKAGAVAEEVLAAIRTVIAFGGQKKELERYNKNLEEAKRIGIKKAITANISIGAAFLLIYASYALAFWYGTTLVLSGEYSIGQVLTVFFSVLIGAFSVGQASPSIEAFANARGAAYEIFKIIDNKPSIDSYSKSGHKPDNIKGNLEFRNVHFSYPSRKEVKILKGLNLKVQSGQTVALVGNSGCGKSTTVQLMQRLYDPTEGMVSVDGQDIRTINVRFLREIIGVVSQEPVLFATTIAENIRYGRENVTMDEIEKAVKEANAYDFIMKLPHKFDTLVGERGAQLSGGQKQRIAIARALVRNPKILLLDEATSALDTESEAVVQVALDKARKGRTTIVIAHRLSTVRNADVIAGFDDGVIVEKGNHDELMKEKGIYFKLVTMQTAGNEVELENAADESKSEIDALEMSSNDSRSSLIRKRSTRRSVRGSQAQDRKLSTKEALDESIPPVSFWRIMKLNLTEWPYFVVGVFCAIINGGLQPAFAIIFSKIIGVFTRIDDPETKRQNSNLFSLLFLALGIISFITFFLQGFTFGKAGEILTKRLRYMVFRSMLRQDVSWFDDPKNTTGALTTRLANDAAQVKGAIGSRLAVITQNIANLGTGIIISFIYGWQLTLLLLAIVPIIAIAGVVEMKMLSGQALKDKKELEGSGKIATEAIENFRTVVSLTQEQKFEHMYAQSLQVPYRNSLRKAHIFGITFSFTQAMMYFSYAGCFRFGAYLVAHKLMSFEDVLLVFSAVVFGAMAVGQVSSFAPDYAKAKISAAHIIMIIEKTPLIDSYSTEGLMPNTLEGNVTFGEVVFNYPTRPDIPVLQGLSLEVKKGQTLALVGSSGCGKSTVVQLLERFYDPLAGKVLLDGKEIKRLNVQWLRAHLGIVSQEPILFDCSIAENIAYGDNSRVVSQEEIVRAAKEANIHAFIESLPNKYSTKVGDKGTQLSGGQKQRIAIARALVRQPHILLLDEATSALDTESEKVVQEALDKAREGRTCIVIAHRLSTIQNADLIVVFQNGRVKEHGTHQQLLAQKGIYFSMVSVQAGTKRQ

Chain of IRAK4 (Q9NWZ3 whole entry): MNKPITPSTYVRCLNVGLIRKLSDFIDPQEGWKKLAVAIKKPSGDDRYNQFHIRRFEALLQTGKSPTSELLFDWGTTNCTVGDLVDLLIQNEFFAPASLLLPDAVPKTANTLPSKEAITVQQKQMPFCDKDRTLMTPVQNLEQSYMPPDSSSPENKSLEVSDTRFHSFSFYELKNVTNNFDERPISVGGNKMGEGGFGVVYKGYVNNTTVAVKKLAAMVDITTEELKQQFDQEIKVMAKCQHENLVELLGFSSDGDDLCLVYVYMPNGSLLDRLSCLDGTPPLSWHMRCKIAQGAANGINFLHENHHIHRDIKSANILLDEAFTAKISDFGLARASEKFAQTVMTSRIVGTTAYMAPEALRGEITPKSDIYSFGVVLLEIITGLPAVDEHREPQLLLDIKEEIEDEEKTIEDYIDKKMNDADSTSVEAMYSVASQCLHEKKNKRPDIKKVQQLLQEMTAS

Structure (SMILES) | IC50 (IRAK4) [nM] | solubility kinetic at 24 h [1] [mg/mL] | efflux ratio at 120 min, 1 μM (MDR1)
C[C@]12CC[C@](c3cn4cc(C(=O)Nc5cccn(C6CC6)c5=O)c(OC5CCC5)cc4n3)(CO1)C2 (single isomer, unassigned) [Example 26] | 0.7 | 0.0653 (≈ 138 µM) | 4.1
CC(C)Oc1cc2nc([C@@]34CC[C@@H](C3)OC4)cn2cc1C(=O)Nc1cccn(C2CC2)c1=O (single isomer, unassigned) [Example 39] | 0.2 | 0.0689 (≈ 154 µM) | 6.8
CC(C)Oc1cc2nc([C@]34CC[C@H](C3)OC4)cn2cc1C(=O)Nc1cccn(C2CC2)c1=O (single isomer, unassigned) [Example 40] | 0.4 | 0.0702 (≈ 157 µM) | 7.5
CC[C@@H](C)Oc1nc2nc(C34COC(C)(C3)C4)cn2cc1C(=O)Nc1cccn([C@H]2C[C@H]2F)c1=O (single isomer, unassigned) [Example 58] | 0.4 | 0.0721 (≈ 150 µM) | 9
CC[C@H](C)Oc1nc2nc(C34COC(C)(C3)C4)cn2cc1C(=O)Nc1cccn([C@H]2C[C@H]2F)c1=O (single isomer, unassigned) [Example 60] | 0.2 | 0.0555 (≈ 115 µM) | 9
CC[C@H](C)Oc1nc2nc(C34COC(C)(C3)C4)cn2cc1C(=O)Nc1cccn(C2CC2)c1=O (single isomer, unassigned) [Example 64] | 0.5 | 0.0496 (≈ 107 µM) | 5
CC(C)Oc1cc2nc([C@@H]3COCCO3)cn2cc1C(=O)Nc1cccn(C2CC2)c1=O (single isomer, unassigned) [Example 69] | 0.3 | 0.0061 (≈ 13.9 µM) | 4.7
CC(C)Oc1cc2nc([C@H]3COCCO3)cn2cc1C(=O)Nc1cccn(C2CC2)c1=O (single isomer, unassigned) [Example 70] | 1.2 | 0.0099 (≈ 22.6 µM) | 3.9
CC12CC(c3cn4cc(C(=O)Nc5cccn([C@@H]6C[C@@H]6F)c5=O)c(OC5CCC5)nc4n3)(CO1)C2 (single isomer, unassigned) [Example 113] | 12.6 | 0.0595 (≈ 124 µM) | 8.7
CC12CC(c3cn4cc(C(=O)Nc5cccn([C@H]6C[C@H]6F)c5=O)c(OC5CCC5)nc4n3)(CO1)C2 (single isomer, unassigned) [Example 114] | 0.3 | 0.0686 (≈ 143 µM) | 10.4

The next lines start with the values.

IC50 (IRAK4) [nM] | solubility kinetic at 24 h [1] [mg/mL] | efflux ratio at 120 min, 1 μM (MDR1) | Structure (SMILES)
0.9 | 0.0613 (≈ 129 µM) | 3.2 | CC[C@@H](C)Oc1cc2nc([C@@]34CC[C@@](C)(C3)OC4)cn2cc1C(=O)Nc1cccn(C2CC2)c1=O (single isomer, unassigned) [Example 21]
0.3 | 0.069 (≈ 145 µM) | 4.3 | CC[C@H](C)Oc1cc2nc([C@@]34CC[C@@](C)(C3)OC4)cn2cc1C(=O)Nc1cccn(C2CC2)c1=O (single isomer, unassigned) [Example 22]
4.3 | 0.0536 (≈ 112 µM) | 2.2 | CC(C)Oc1c(C(=O)Nc2cccn(C3CC3)c2=O)cn2cc([C@]34CC[C@](C)(C3)OC4)nc2c1F (single isomer, unassigned) [Example 68]
0.6 | 0.0628 (≈ 130 µM) | 4.9 | CC(C)Oc1c(C(=O)Nc2cccn([C@H]3C[C@H]3F)c2=O)cn2cc(C34COC(C)(C3)C4)nc2c1F (single isomer, unassigned) [Example 93]
0.7 | 0.0231 (≈ 48.1 µM) | 3.9 | CC(C)Oc1cc2nc([C@@]34CC[C@@](C)(C3)OC4)cn2cc1C(=O)Nc1cccn([C@H]2C[C@@H]2F)c1=O (single isomer, unassigned) [Example 117]
